Source: patent US11472792B2, “Herbicidal mixtures” (SYNGENTA CROP PROTECTION AG, priority 2019, dated 2022)

What was measured:
Type in all cases: in vivo
[1] = tested on: Abutilon theophrasti (ABUTH); experiment: Herbicidal efficacy, pre-emergence application (glasshouse); conditions: Abutilon theophrasti, 312 h, evaluated visually after 13 days, 100=total damage, 0=no damage, read-out: percentage phytotoxicity to the plant, ABUTH
Description: (§1) Seeds of a variety of test species [Ipomoea hederacea (IPOHE); Zea mays (ZEAMX); Echinochloa crus-galli (ECHCG); Setaria faberi (SETFA); Abutilon theophrasti (ABUTH); Amaranthus retroflexus (AMARE)] were sown in standard sterilised soil in pots. After cultivation for one day (pre-emergence) or after 8 days cultivation (post-emergence) under controlled conditions in a glasshouse (at 24/16° C., day/night; 14 hours light; 65% humidity), the plants were sprayed with an aqueous spray solution derived from the formulation of the technical active ingredient in acetone/water (50:50) solution containing 0.5% Tween 20 (polyoxyethelyene sorbitan monolaurate, CAS RN 9005-64-5), subsequently diluted in water, and sprayed to give the stated application rate.
(§2) The test plants were then grown under controlled conditions in a glasshouse (at 24/16° C., day/night; 14 hours light; 65% humidity) and watered twice daily.
(§3) After 13 days for pre and post-emergence, the test was evaluated visually for percentage phytotoxicity to the plant (where 100=total damage to plant; 0=no damage to plant).

[2] = tested on: Amaranthus retroflexus (AMARE); experiment: as above; conditions: Amaranthus retroflexus, 312 h, evaluated visually after 13 days, 100=total damage, 0=no damage, read-out: percentage phytotoxicity to the plant, AMARE
Description: as §1, §2, §3

Setaria faberi (SETFA) [3] = experiment: as above; conditions: Setaria faberi, 312 h, evaluated visually after 13 days, 100=total damage, 0=no damage, read-out: percentage phytotoxicity to the plant, SETFA
Description: as §1, §2, §3

Zea mays (ZEAMX) [4] = experiment: as above; conditions: Zea mays, 312 h, evaluated visually after 13 days, 100=total damage, 0=no damage, read-out: percentage phytotoxicity to the plant, ZEAMX
Description: as §1, §2, §3

[5] = tested on: Ipomoea hederacea (IPOHE); experiment: as above; conditions: Ipomoea hederacea, 312 h, evaluated visually after 13 days, 100=total damage, 0=no damage, read-out: percentage phytotoxicity to the plant, IPOHE
Description: as §1, §2, §3

[6] = tested on: Echinochloa crus-galli (ECHCG); experiment: as above; conditions: Echinochloa crus-galli, 312 h, evaluated visually after 13 days, 100=total damage, 0=no damage, read-out: percentage phytotoxicity to the plant, ECHCG
Description: as §1, §2, §3

[7] = tested on: Abutilon theophrasti (ABUTH); experiment: Herbicidal efficacy, post-emergence application (glasshouse); conditions: Abutilon theophrasti, 312 h, evaluated visually after 13 days, 100=total damage, 0=no damage, read-out: percentage phytotoxicity to the plant, ABUTH
Description: as §1, §2, §3

[8] = tested on: Amaranthus retroflexus (AMARE); experiment: as above; conditions: Amaranthus retroflexus, 312 h, evaluated visually after 13 days, 100=total damage, 0=no damage, read-out: percentage phytotoxicity to the plant, AMARE
Description: as §1, §2, §3

Setaria faberi (SETFA) [9] = experiment: as above; conditions: Setaria faberi, 312 h, evaluated visually after 13 days, 100=total damage, 0=no damage, read-out: percentage phytotoxicity to the plant, SETFA
Description: as §1, §2, §3

Zea mays (ZEAMX) [10] = experiment: as above; conditions: Zea mays, 312 h, evaluated visually after 13 days, 100=total damage, 0=no damage, read-out: percentage phytotoxicity to the plant, ZEAMX
Description: as §1, §2, §3

[11] = tested on: Ipomoea hederacea (IPOHE); experiment: as above; conditions: Ipomoea hederacea, 312 h, evaluated visually after 13 days, 100=total damage, 0=no damage, read-out: percentage phytotoxicity to the plant, IPOHE
Description: as §1, §2, §3

[12] = tested on: Echinochloa crus-galli (ECHCG); experiment: as above; conditions: Echinochloa crus-galli, 312 h, evaluated visually after 13 days, 100=total damage, 0=no damage, read-out: percentage phytotoxicity to the plant, ECHCG
Description: as §1, §2, §3

Structure (SMILES)	pest or weed control at 250 g/ha [1]	pest or weed control at 250 g/ha [2]	pest or weed control at 250 g/ha (Setaria faberi (SETFA) [3])	plant injury at 250 g/ha (Zea mays (ZEAMX) [4])	pest or weed control at 250 g/ha [5]	pest or weed control at 250 g/ha [6]	pest or weed control at 250 g/ha [7]	pest or weed control at 250 g/ha [8]	pest or weed control at 250 g/ha (Setaria faberi (SETFA) [9])	plant injury at 250 g/ha (Zea mays (ZEAMX) [10])	pest or weed control at 250 g/ha [11]	pest or weed control at 250 g/ha [12]
CN1C[C@H](c2cc(C(F)(F)F)n(C)n2)[C@@H](C(=O)Nc2cccc(F)c2F)C1=O [Compound 2.1, (3S,4R)-N-(2,3-difluorophenyl)-1-methyl-4-[1-methyl-5-(trifluoromethyl)pyrazol-3-yl]-2-oxo-pyrrolidine-3-carboxamide]	10%	70%	90%	90%	30%	100%	0%	20%	90%	80%	0%	90%
CN1C[C@H](c2cc(C(F)(F)F)n(C)n2)[C@@H](C(=O)Nc2ccccc2F)C1=O [Compound 2.2, (3S,4R)-N-(2-fluorophenyl)-1-methyl-4-[1-methyl-5-(trifluoromethyl)pyrazol-3-yl]-2-oxo-pyrrolidine-3-carboxamide]	0%	20%	90%	20%	0%	90%	0%	0%	90%	50%	0%	90%
CN1C[C@H](c2cc(C(F)(F)F)n(C)n2)[C@@H](C(=O)Nc2ccc(F)cc2F)C1=O [Compound 2.3, (3S,4R)-N-(2,4-difluorophenyl)-1-methyl-4-[1-methyl-5-(trifluoromethyl)pyrazol-3-yl]-2-oxo-pyrrolidine-3-carboxamide]	70%	50%	90%	60%	10%	90%	60%	10%	70%	60%	10%	70%
CN1C[C@H](c2cc(C(F)(F)F)n(C)n2)[C@@H](C(=O)Nc2cccc(F)c2OC(F)(F)F)C1=O [Compound 2.4, (3S,4R)-N-[3-fluoro-2-(trifluoromethoxy)phenyl]-1-methyl-4-[1-methyl-5-(trifluoromethyl)pyrazol-3-yl]-2-oxo-pyrrolidine-3-carboxamide]	0%	0%	90%	30%	50%	90%	0%	0%	70%	0%	0%	70%
CN1C[C@H](c2cc(C(F)(F)F)n(C)n2)[C@@H](C(=O)Nc2cccc(F)c2C(F)(F)F)C1=O [Compound 2.5, (3S,4R)-N-[3-fluoro-2-(trifluoromethyl)phenyl]-1-methyl-4-[1-methyl-5-(trifluoromethyl)pyrazol-3-yl]-2-oxo-pyrrolidine-3-carboxamide]	0%	0%	90%	20%	10%	90%	0%	30%	80%	10%	0%	80%
COc1c(F)cccc1NC(=O)[C@H]1C(=O)N(C)C[C@@H]1c1cc(C(F)(F)F)n(C)n1 [Compound 2.6, (3S,4R)-N-(3-fluoro-2-methoxy-phenyl)-1-methyl-4-[1-methyl-5-(trifluoromethyl)pyrazol-3-yl]-2-oxo-pyrrolidine-3-carboxamide]	0%	0%	90%	80%	20%	90%	0%	0%	70%	80%	50%	70%
CN1C[C@H](c2cc(C(F)(F)F)n(C)n2)[C@@H](C(=O)Nc2ccc(F)c(F)c2F)C1=O [Compound 2.7, (3S,4R)-1-methyl-4-[1-methyl-5-(trifluoromethyl)pyrazol-3-yl]-2-oxo-N-(2,3,4-trifluorophenyl)pyrrolidine-3-carboxamide]	10%	20%	90%	90%	20%	100%	0%	50%	80%	80%	0%	80%
CN1C[C@H](c2cc(C(F)(F)F)n(C)n2)[C@@H](C(=O)Nc2ccc(F)nc2F)C1=O [Compound 2.8, (3S,4R)-N-(2,6-difluoro-3-pyridyl)-1-methyl-4-[1-methyl-5-(trifluoromethyl)pyrazol-3-yl]-2-oxo-pyrrolidine-3-carboxamide]	0%	20%	90%	40%	0%	90%	0%	0%	80%	80%	30%	80%
CN1C[C@H](c2cc(C(F)(F)F)n(C)n2)[C@@H](C(=O)Nc2cccc(F)n2)C1=O [Compound 2.9, (3S,4R)-N-(6-fluoro-2-pyridyl)-1-methyl-4-[1-methyl-5-(trifluoromethyl)pyrazol-3-yl]-2-oxo-pyrrolidine-3-carboxamide]	0%	0%	90%	80%	40%	100%	0%	0%	80%	40%	50%	80%
CN1C[C@H](c2cc(C(F)(F)F)n(C)n2)[C@@H](C(=O)Nc2cccc(F)c2OC(F)F)C1=O [Compound 2.10, (3S,4R)-N-[2-(difluoromethoxy)-3-fluoro-phenyl]-1-methyl-4-[1-methyl-5-(trifluoromethyl)pyrazol-3-yl]-2-oxo-pyrrolidine-3-carboxamide]	0%	0%	90%	40%	20%	90%	0%	0%	80%	80%	30%	80%
